Experimental findings from article PMC6483395 (Synlett : accounts and rapid communications in synthetic …, 2017) are described below.

For this test, the target named is T1, NapH1 (Streptomyces sp. CNQ-525, UniProt A7KH27).
T1 sequence (A7KH27 42-527): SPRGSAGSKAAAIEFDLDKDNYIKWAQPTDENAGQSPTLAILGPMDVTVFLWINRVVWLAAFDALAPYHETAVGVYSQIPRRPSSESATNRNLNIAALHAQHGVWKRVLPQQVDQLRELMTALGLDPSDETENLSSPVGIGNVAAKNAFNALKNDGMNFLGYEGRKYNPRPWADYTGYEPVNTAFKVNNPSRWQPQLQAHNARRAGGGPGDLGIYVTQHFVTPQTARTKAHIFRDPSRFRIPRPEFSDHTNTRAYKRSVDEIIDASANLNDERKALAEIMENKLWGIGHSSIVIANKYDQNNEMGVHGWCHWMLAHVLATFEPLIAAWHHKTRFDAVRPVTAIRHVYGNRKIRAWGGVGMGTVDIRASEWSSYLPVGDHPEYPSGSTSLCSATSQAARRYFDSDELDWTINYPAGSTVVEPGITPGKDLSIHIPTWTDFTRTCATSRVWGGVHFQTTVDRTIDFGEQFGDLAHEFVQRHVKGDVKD
The experiment in a line: crystal structure. It counts as binding. The note with it: homodimer; structures with and without vanadate.

Take `[O]=[V]([OH])([OH])[OH]` [vanadate]: the crystal structure entry is “we solved the three-dimensional structures of the homodimeric NapH1 with and without vanadate”.
